Laboratory results taken from ChEMBL document CHEMBL1201862, “PubChem BioAssay data set” (2004).
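Dose response: 5 concentrations. Exposure: 48 h. Format: 96-well plates. Endpoint: linear interpolation; highest concentration if not reached. Here, GI50 denotes the concentration required for 50% inhibition of growth.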 Activity calls are given as the source filed them. Rule as the data show it: active = GI50 up to about 1.1 µM and inactive = higher.

Experiments:
Assay in all cases: NCI tumour cell line growth inhibition, 48 h
[1] = system: T47D
[2] = system: HCC 2998
[3] = system: MDA-N
[4] = system: NCI-H460
[5] = system: SNB-19
[6] = system: OVCAR-8
[7] = system: OVCAR-5
[8] = system: MDA-MB-435
[9] = system: HT-29
[10] = system: UACC-257
[11] = system: 786-0
[12] = system: SK-MEL-28
[13] = system: HOP-92
[14] = system: SK-MEL-2
[15] = system: DU-145
[16] = system: NCI-H23
[17] = system: U-251
[18] = system: K562
[19] = system: Malme-3M
[20] = system: RPMI-8226

Measured: GI50

CC(=O)/C(=C/n1ccc(=O)[nH]c1=S)C(=O)Nc1ccccc1C
inactive: [1] > 100 µM | [2] > 100 µM | [3] > 100 µM | [4] > 100 µM | [5] > 100 µM | [6] > 100 µM | [7] > 100 µM | [8] > 100 µM | [9] > 100 µM | [10] > 100 µM | [11] > 100 µM | [12] > 100 µM | [13] > 100 µM | [14] > 100 µM | [15] > 100 µM | [16] > 100 µM | [17] > 100 µM

COc1c(OC)c(OC)c2c(=O)c(OC)c(-c3ccc4c(c3)OCO4)oc2c1OC
inactive: [1] 41.9 µM | [2] > 100 µM | [3] > 100 µM | [18] 64.7 µM | [4] > 100 µM | [5] > 100 µM | [6] 61 µM | [7] > 100 µM | [8] 82.4 µM | [9] > 100 µM | [10] > 100 µM | [11] > 100 µM | [12] > 100 µM | [13] 1.48 µM | [14] > 100 µM | [15] > 100 µM | [19] > 100 µM | [16] > 100 µM | [17] > 100 µM

O=C(O)CN1CCN2CCCCCN(CC1)CCN(CC(=O)O)CC2
inactive: [1] > 100 µM | [3] > 100 µM | [18] > 100 µM | [4] 91.4 µM | [5] > 100 µM | [6] > 100 µM | [20] > 100 µM | [7] > 100 µM | [8] > 100 µM | [9] 31.2 µM | [10] > 100 µM | [11] > 100 µM | [12] > 100 µM | [13] > 100 µM | [14] > 100 µM | [15] > 100 µM | [19] 22.4 µM | [17] > 100 µM

CC(CS(=O)(=O)Cc1ccccc1)C(N)=O (stereo not given)
inactive: [1] > 100 µM | [3] > 100 µM | [18] > 100 µM | [4] > 100 µM | [5] > 100 µM | [6] > 100 µM | [20] > 100 µM | [7] > 100 µM | [8] > 100 µM | [9] > 100 µM | [10] > 100 µM | [11] > 100 µM | [12] > 100 µM | [13] > 100 µM | [14] > 100 µM | [15] > 100 µM | [19] > 100 µM | [16] > 100 µM | [17] > 100 µM

Cc1c(-c2ccccn2)ccc2ccccc12
inactive: [1] 39.2 µM | [2] 37.8 µM | [3] 61 µM | [18] 71 µM | [4] 42.4 µM | [5] > 100 µM | [6] 26.4 µM | [20] 19 µM | [7] > 100 µM | [8] 48.5 µM | [9] 41.7 µM | [10] > 100 µM | [11] 77.3 µM | [12] 85.5 µM | [13] 23 µM | [15] > 100 µM | [19] 69.7 µM | [16] 90.2 µM | [17] 93.5 µM

C1CSCCCSCCSCCCSC1
inactive: [1] > 100 µM | [2] > 100 µM | [3] > 100 µM | [18] > 100 µM | [4] > 100 µM | [5] > 100 µM | [6] > 100 µM | [20] > 100 µM | [7] > 100 µM | [8] > 100 µM | [9] > 100 µM | [10] > 100 µM | [11] > 100 µM | [12] > 100 µM | [13] > 100 µM | [14] > 100 µM | [15] > 100 µM | [16] > 100 µM | [17] > 100 µM

NC1=C(N2CCCCC2)C(=O)NC2=N/C(=C\c3ccccc3)C(=O)N21
inactive: [1] > 100 µM | [2] > 100 µM | [3] > 100 µM | [18] 57.5 µM | [4] > 100 µM | [5] > 100 µM | [6] > 100 µM | [20] > 100 µM | [7] > 100 µM | [8] > 100 µM | [9] > 100 µM | [10] > 100 µM | [11] > 100 µM | [12] > 100 µM | [13] > 100 µM | [15] > 100 µM | [19] > 100 µM | [16] > 100 µM | [17] > 100 µM
